Source: patent publication US12077503B2, “Substituted cyclic amides and their use as herbicides” (FMC CORPORATION, priority 2015, dated 2024)

Assays:
Type in all cases: in vivo
[1] = tested on: lambsquarters (Chenopodium album); test: Test C preemergence; details: for Plant response rating (scale of 0 to 100), Lambsquarters: 0 is no effect, 100 is complete control; for Plant response rating, Lambsquarters: scale 0 to 100, 0 no effect, 100 complete control
Procedure, shortened: (§1)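 Preemergence: sow in loam-sand soil and treat. Postemergence: grow in peat-moss/vermiculite medium to 2–18 cm (1–4 leaves) and spray. Compound in non-phytotoxic solvent with surfactant; keep in greenhouse 13–15 d; score visually against controls, 0 (none) to 100 (full control).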

[2] = tested on: ragweed (common ragweed, Ambrosia elatior); test: Test C preemergence; details: for Plant response rating (scale of 0 to 100), Ragweed: 0 is no effect, 100 is complete control; for Plant response rating, Ragweed: scale 0 to 100, 0 no effect, 100 complete control
Procedure, shortened: as §1

[3] = tested on: Kochia (Kochia scoparia); test: Test E preemergence; details: scale 0 to 100
Procedure, shortened: (§2)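 Greenhouse test: seeds in silt loam treated preemergence, or 1- to 4-leaf plants in peat-based potting medium treated postemergence, with surfactant-containing solvent formulation of compound; assessed 14 to 21 d later. Scores use a 0 to 100 scale where 100 means complete control.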

[4] = tested on: barnyardgrass (Echinochloa crus-galli); test: Test E preemergence; details: scale 0 to 100
Procedure, shortened: as §2

[5] = tested on: corn (Zea mays); test: Test E preemergence; details: scale 0 to 100
Procedure, shortened: as §2

[6] = tested on: crabgrass, Brazil (Brazilian crabgrass, Digitaria horizontalis); test: Test E preemergence; details: scale 0 to 100
Procedure, shortened: as §2

[7] = tested on: crabgrass, large (large crabgrass, Digitaria sangumnalis); test: Test E preemergence; details: scale 0 to 100
Procedure, shortened: as §2

[8] = tested on: dayflower, VA (Virginia dayflower, Commelina virginica); test: Test E preemergence; details: scale 0 to 100
Procedure, shortened: as §2

[9] = tested on: field bindweed (Convolvulus arvensis); test: Test E preemergence; details: scale 0 to 100
Procedure, shortened: as §2

[10] = tested on: foxtail, giant (giant foxtail, Setaria faberii); test: Test E preemergence; details: scale 0 to 100
Procedure, shortened: as §2

[11] = tested on: goosegrass (Eleusine indica); test: Test E preemergence; details: scale 0 to 100
Procedure, shortened: as §2

[12] = tested on: nutsedge, yellow (yellow nutsedge, Cyperus esculentus); test: Test E preemergence; details: scale 0 to 100
Procedure, shortened: as §2

[13] = tested on: sandbur (southern sandbur, Cenchrus echinatus); test: Test E preemergence; details: scale 0 to 100
Procedure, shortened: as §2

[14] = tested on: surinam grass (Brachiaria decumbens); test: Test E preemergence; details: scale 0 to 100
Procedure, shortened: as §2

[15] = tested on: waterhemp (common waterhemp, Amaranthus rudis); test: Test E preemergence; details: scale 0 to 100
Procedure, shortened: as §2

`CN1C[C@H](c2ccc(C(F)(F)F)cc2)[C@@H](C(=O)Nc2cccc(F)c2F)C1=O` [Compound 623, (3S,4S)—N-(2,3-difluorophenyl)-1-methyl-2-oxo-4-[4-(trifluoromethyl)phenyl]-3-pyrrolidinecarboxamide] was tested, and the “Plant response rating (scale of 0 to 100), Lambsquarters” value ([1]; 8 g ai/ha) was 10, the “Plant response rating (scale of 0 to 100), Lambsquarters” value ([1]; 16 g ai/ha) was 30 and the “Plant response rating (scale of 0 to 100), Lambsquarters” value ([1]; 31 g ai/ha) was 60. The “Plant response rating, Lambsquarters” value ([1]; 62 g ai/ha) was 50, the “Plant response rating (scale of 0 to 100), Ragweed” value ([2]; 8 g ai/ha) was 0 and the “Plant response rating (scale of 0 to 100), Ragweed” value ([2]; 16 g ai/ha) was 20. For the same compound, the “Plant response rating (scale of 0 to 100), Ragweed” value ([2]; 31 g ai/ha) was 45, the “Plant response rating, Ragweed” value ([2]; 62 g ai/ha) was 75 and the “Plant response rating: Kochia” value ([3]; 31 g ai/ha) was 90. For the same compound, the “Plant response rating: Kochia” value ([3]; 62 g ai/ha) was 90, the “Plant response rating: Kochia” value ([3]; 125 g ai/ha) was 95 and the “Plant response rating: Kochia” value ([3]; 250 g ai/ha) was 95. For the same compound, the “Plant response rating: Barnyardgrass” value ([4]; 31 g ai/ha) was 95, the “Plant response rating: Barnyardgrass” value ([4]; 62 g ai/ha) was 95 and the “Plant response rating: Barnyardgrass” value ([4]; 125 g ai/ha) was 98. The “Plant response rating: Barnyardgrass” value ([4]; 250 g ai/ha) was 98, the “Plant response rating: Corn” value ([5]; 31 g ai/ha) was 0 and the “Plant response rating: Corn” value ([5]; 62 g ai/ha) was 60. For the same compound, the “Plant response rating: Corn” value ([5]; 125 g ai/ha) was 75, the “Plant response rating: Corn” value ([5]; 250 g ai/ha) was 65 and the “Plant response rating: Crabgrass, Brazil” value ([6]; 31 g ai/ha) was 98. For the same compound, the “Plant response rating: Crabgrass, Brazil” value ([6]; 62 g ai/ha) was 98, the “Plant response rating: Crabgrass, Brazil” value ([6]; 125 g ai/ha) was 98 and the “Plant response rating: Crabgrass, Brazil” value ([6]; 250 g ai/ha) was 98. The “Plant response rating: Crabgrass, Large” value ([7]; 31 g ai/ha) was 98, the “Plant response rating: Crabgrass, Large” value ([7]; 62 g ai/ha) was 98 and the “Plant response rating: Crabgrass, Large” value ([7]; 125 g ai/ha) was 98. The “Plant response rating: Crabgrass, Large” value ([7]; 250 g ai/ha) was 98, the “Plant response rating: Dayflower, VA” value ([8]; 31 g ai/ha) was 0 and the “Plant response rating: Dayflower, VA” value ([8]; 62 g ai/ha) was 0. For the same compound, the “Plant response rating: Dayflower, VA” value ([8]; 125 g ai/ha) was 20, the “Plant response rating: Dayflower, VA” value ([8]; 250 g ai/ha) was 35 and the “Plant response rating: Field Bindweed” value ([9]; 31 g ai/ha) was 0. The “Plant response rating: Field Bindweed” value ([9]; 62 g ai/ha) was 60, the “Plant response rating: Field Bindweed” value ([9]; 125 g ai/ha) was 70 and the “Plant response rating: Field Bindweed” value ([9]; 250 g ai/ha) was 75. For the same compound, the “Plant response rating: Foxtail, Giant” value ([10]; 31 g ai/ha) was 95, the “Plant response rating: Foxtail, Giant” value ([10]; 62 g ai/ha) was 95 and the “Plant response rating: Foxtail, Giant” value ([10]; 125 g ai/ha) was 95. The “Plant response rating: Foxtail, Giant” value ([10]; 250 g ai/ha) was 95, the “Plant response rating: Goosegrass” value ([11]; 31 g ai/ha) was 95 and the “Plant response rating: Goosegrass” value ([11]; 62 g ai/ha) was 98. For the same compound, the “Plant response rating: Goosegrass” value ([11]; 125 g ai/ha) was 98, the “Plant response rating: Goosegrass” value ([11]; 250 g ai/ha) was 98 and the “Plant response rating: Nutsedge, Yellow” value ([12]; 31 g ai/ha) was 0. For the same compound, the “Plant response rating: Nutsedge, Yellow” value ([12]; 62 g ai/ha) was 20, the “Plant response rating: Nutsedge, Yellow” value ([12]; 125 g ai/ha) was 40 and the “Plant response rating: Nutsedge, Yellow” value ([12]; 250 g ai/ha) was 80. For the same compound, the “Plant response rating: Sandbur” value ([13]; 31 g ai/ha) was 90, the “Plant response rating: Sandbur” value ([13]; 62 g ai/ha) was 90 and the “Plant response rating: Sandbur” value ([13]; 125 g ai/ha) was 90. The “Plant response rating: Sandbur” value ([13]; 250 g ai/ha) was 90, the “Plant response rating: Surinam Grass” value ([14]; 31 g ai/ha) was 75 and the “Plant response rating: Surinam Grass” value ([14]; 62 g ai/ha) was 90. The “Plant response rating: Surinam Grass” value ([14]; 125 g ai/ha) was 90, the “Plant response rating: Surinam Grass” value ([14]; 250 g ai/ha) was 90 and the “Plant response rating: Waterhemp” value ([15]; 31 g ai/ha) was 90. The “Plant response rating: Waterhemp” value ([15]; 62 g ai/ha) was 90, the “Plant response rating: Waterhemp” value ([15]; 125 g ai/ha) was 95 and the “Plant response rating: Waterhemp” value ([15]; 250 g ai/ha) was 95.

In the case of `CN1C[C@H](c2ccc(F)c(F)c2)[C@@H](C(=O)Nc2ccccc2F)C1=O` [Compound 596, (3S,4S)-4-(3,4-difluorophenyl)-N-(2-fluorophenyl)-1-methyl-2-oxo-3-pyrrolidinecarboxamide], the “Plant response rating (scale of 0 to 100), Lambsquarters” value ([1]; 31 g ai/ha) was 10, the “Plant response rating, Lambsquarters” value ([1]; 62 g ai/ha) was 60 and the “Plant response rating, Lambsquarters” value ([1]; 125 g ai/ha) was 70. For the same compound, the “Plant response rating, Lambsquarters” value ([1]; 250 g ai/ha) was 75, the “Plant response rating (scale of 0 to 100), Ragweed” value ([2]; 31 g ai/ha) was 10 and the “Plant response rating, Ragweed” value ([2]; 62 g ai/ha) was 20. For the same compound, the “Plant response rating, Ragweed” value ([2]; 125 g ai/ha) was 50, the “Plant response rating, Ragweed” value ([2]; 250 g ai/ha) was 75 and the “Plant response rating: Kochia” value ([3]; 31 g ai/ha) was 0. For the same compound, the “Plant response rating: Kochia” value ([3]; 62 g ai/ha) was 25, the “Plant response rating: Kochia” value ([3]; 125 g ai/ha) was 80 and the “Plant response rating: Kochia” value ([3]; 250 g ai/ha) was 90. For the same compound, the “Plant response rating: Barnyardgrass” value ([4]; 31 g ai/ha) was 95, the “Plant response rating: Barnyardgrass” value ([4]; 62 g ai/ha) was 98 and the “Plant response rating: Barnyardgrass” value ([4]; 125 g ai/ha) was 98. For the same compound, the “Plant response rating: Barnyardgrass” value ([4]; 250 g ai/ha) was 98, the “Plant response rating: Corn” value ([5]; 31 g ai/ha) was 0 and the “Plant response rating: Corn” value ([5]; 62 g ai/ha) was 0. The “Plant response rating: Corn” value ([5]; 125 g ai/ha) was 0, the “Plant response rating: Corn” value ([5]; 250 g ai/ha) was 0 and the “Plant response rating: Crabgrass, Brazil” value ([6]; 31 g ai/ha) was 100. The “Plant response rating: Crabgrass, Brazil” value ([6]; 62 g ai/ha) was 95, the “Plant response rating: Crabgrass, Brazil” value ([6]; 125 g ai/ha) was 100 and the “Plant response rating: Crabgrass, Brazil” value ([6]; 250 g ai/ha) was 100. The “Plant response rating: Crabgrass, Large” value ([7]; 31 g ai/ha) was 95, the “Plant response rating: Crabgrass, Large” value ([7]; 62 g ai/ha) was 95 and the “Plant response rating: Crabgrass, Large” value ([7]; 125 g ai/ha) was 98. For the same compound, the “Plant response rating: Crabgrass, Large” value ([7]; 250 g ai/ha) was 98, the “Plant response rating: Dayflower, VA” value ([8]; 31 g ai/ha) was 0 and the “Plant response rating: Dayflower, VA” value ([8]; 62 g ai/ha) was 40. For the same compound, the “Plant response rating: Dayflower, VA” value ([8]; 125 g ai/ha) was 40, the “Plant response rating: Dayflower, VA” value ([8]; 250 g ai/ha) was 35 and the “Plant response rating: Field Bindweed” value ([9]; 31 g ai/ha) was 0. The “Plant response rating: Field Bindweed” value ([9]; 62 g ai/ha) was 0, the “Plant response rating: Field Bindweed” value ([9]; 125 g ai/ha) was 0 and the “Plant response rating: Field Bindweed” value ([9]; 250 g ai/ha) was 15. The “Plant response rating: Foxtail, Giant” value ([10]; 31 g ai/ha) was 95, the “Plant response rating: Foxtail, Giant” value ([10]; 62 g ai/ha) was 95 and the “Plant response rating: Foxtail, Giant” value ([10]; 125 g ai/ha) was 98. The “Plant response rating: Foxtail, Giant” value ([10]; 250 g ai/ha) was 98, the “Plant response rating: Goosegrass” value ([11]; 31 g ai/ha) was 5 and the “Plant response rating: Goosegrass” value ([11]; 62 g ai/ha) was 5. The “Plant response rating: Goosegrass” value ([11]; 125 g ai/ha) was 25, the “Plant response rating: Goosegrass” value ([11]; 250 g ai/ha) was 65 and the “Plant response rating: Nutsedge, Yellow” value ([12]; 31 g ai/ha) was 0. For the same compound, the “Plant response rating: Nutsedge, Yellow” value ([12]; 62 g ai/ha) was 0, the “Plant response rating: Nutsedge, Yellow” value ([12]; 125 g ai/ha) was 0 and the “Plant response rating: Nutsedge, Yellow” value ([12]; 250 g ai/ha) was 0. The “Plant response rating: Sandbur” value ([13]; 31 g ai/ha) was 85, the “Plant response rating: Sandbur” value ([13]; 62 g ai/ha) was 90 and the “Plant response rating: Sandbur” value ([13]; 125 g ai/ha) was 90. The “Plant response rating: Sandbur” value ([13]; 250 g ai/ha) was 95, the “Plant response rating: Surinam Grass” value ([14]; 31 g ai/ha) was 35 and the “Plant response rating: Surinam Grass” value ([14]; 62 g ai/ha) was 65. For the same compound, the “Plant response rating: Surinam Grass” value ([14]; 125 g ai/ha) was 95, the “Plant response rating: Surinam Grass” value ([14]; 250 g ai/ha) was 95 and the “Plant response rating: Waterhemp” value ([15]; 31 g ai/ha) was 0. For the same compound, the “Plant response rating: Waterhemp” value ([15]; 62 g ai/ha) was 0, the “Plant response rating: Waterhemp” value ([15]; 125 g ai/ha) was 0 and the “Plant response rating: Waterhemp” value ([15]; 250 g ai/ha) was 50.
